In patent publication US11478478B2, “2,3-disubstituted 1-acyl-4-amino-1,2,3,4-tetrahydroquinoline derivatives and their use as bromodomain inhibitors” (GLAXOSMITHKLINE INTELLECTUAL PROPERTY (NO.2) LIMITED, priority 2013, dated 2022):

The compounds below were run against T1, BRD4 BD2 (Homo sapiens, UniProt O60885, Y97A) (assay: TR-FRET binding assay, BRD4 BD2 (BD1-mutated protein)). Settings: read-out: pIC50 in the BRD4 BD2 assay (converted).
T1 construct: BRD4 (1-477) (Y97A) and (Y390A); made in house; host or cells: E. coli (pET15b vector)
Method in brief: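 Displacement of Alexa Fluor647-labelled bromodomain ligand (at Kd) from 10 nM His-tagged BRD4 (1-477, Y97A) read by Eu-anti-His TR-FRET (665/615 ratio) in pH 7.4 HEPES buffer, 0.5% DMSO. Compound preincubated 30 min at rt, detection ≥30 min. pIC50 derived from four-parameter fit after normalisation to controls.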

SMILES	IC50
CC(=O)N1c2ccc(C(=O)N[C@@H]3CCOC3)cc2[C@H](Nc2cccc(C)n2)[C@@H](C)[C@@H]1C1CC1 [Example 261, (2S,3R,4R)-1-acetyl-2-cyclopropyl-3-methyl-4-((6-methylpyridin-2-yl)amino)-N—((R)-tetrahydrofuran-3-yl)-1,2,3,4-tetrahydroquinoline-6-carboxamide]	100 nM
CC(=O)N1c2ccc(C(=O)NCCS(C)(=O)=O)cc2[C@H](Nc2cccc(C)n2)[C@@H](C)[C@@H]1C1CC1 [Example 262, (2S,3R,4R)-1-acetyl-2-cyclopropyl-3-methyl-4-((6-methylpyridin-2-yl)amino)-N-(2-(methylsulfonyl)ethyl)-1,2,3,4-tetrahydroquinoline-6-carboxamide]	100 nM
CC(=O)N1c2ccc(C(N)=O)cc2[C@H](Nc2nccc(C)n2)[C@@H](C)[C@@H]1C1CC1 [Example 291, (2S,3R,4R)-1-acetyl-2-cyclopropyl-3-methyl-4-((4-methylpyrimidin-2-yl)amino)-1,2,3,4-tetrahydroquinoline-6-carboxamide]	100 nM
CC(=O)N1c2ccc(C#N)cc2[C@H](Nc2cccc(CN(C)C)n2)[C@@H](C)[C@@H]1C1CC1 [Example 298, (2S,3R,4R)-1-acetyl-2-cyclopropyl-4-((6-((dimethylamino)methyl)pyridin-2-yl)amino)-3-methyl-1,2,3,4-tetrahydroquinoline-6-carbonitrile]	1000 to 100000 nM
CC(=O)N1c2ccc(C#N)cc2[C@H](Nc2ncccc2C(N)=O)[C@@H](C)[C@@H]1C1CC1 [Example 314, 2-(((2S,3R,4R)-1-acetyl-6-cyano-2-cyclopropyl-3-methyl-1,2,3,4-tetrahydroquinolin-4-yl)amino)nicotinamide]	100 nM
CC(=O)N1c2ccc(C#N)cc2[C@H](Nc2cccc(C(N)=O)n2)[C@@H](C)[C@@H]1C1CC1 [Example 316, 6-(((2S,3R,4R)-1-acetyl-6-cyano-2-cyclopropyl-3-methyl-1,2,3,4-tetrahydroquinolin-4-yl)amino)picolinamide]	1000 to 100000 nM
CC(=O)N1c2ccc(C#N)cc2[C@H](Nc2cccc(OCCN)n2)[C@@H](C)[C@@H]1C1CC1 [Example 318, (2S,3R,4R)-1-acetyl-4-((6-(2-aminoethoxy)pyridin-2-yl)amino)-2-cyclopropyl-3-methyl-1,2,3,4-tetrahydroquinoline-6-carbonitrile]	100 nM
CC[C@H]1[C@H](C)[C@@H](Nc2ccc(C#N)cc2)c2cc(C(=O)O)ccc2N1C(C)=O [Example 331, (2S,3R,4R)-1-acetyl-4-((4-cyanophenyl)amino)-2-ethyl-3-methyl-1,2,3,4-tetrahydroquinoline-6-carboxylic acid]	100 nM
CC(=O)N1c2ccc(C(=O)O)cc2[C@H](Nc2ccc(S(C)(=O)=O)cc2)[C@@H](C)[C@@H]1C1CC1 [Example 332, (2S,3R,4)-1-acetyl-2-cyclopropyl-3-methyl-4-((4-(methylsulfonyl)phenyl)amino)-1,2,3,4-tetrahydroquinoline-6-carboxylic acid]	1000 to 100000 nM
COc1cnc(N[C@H]2c3cc(C(N)=O)ccc3N(C(C)=O)[C@@H](C3CC3)[C@@H]2C)nc1C [Example 348, (2S,3R,4R)-1-acetyl-2-cyclopropyl-4-((5-methoxy-4-methylpyrimidin-2-yl)amino)-3-methyl-1,2,3,4-tetrahydroquinoline-6-carboxamide]	1000 to 100000 nM
CC(=O)N1c2ccc(C(N)=O)cc2[C@H](Nc2cccc(CO)n2)[C@@H](C)[C@@H]1C1CC1 [Example 350, (2S,3R,4R)-1-acetyl-2-cyclopropyl-4-((6-(hydroxymethyl)pyridin-2-yl)amino)-3-methyl-1,2,3,4-tetrahydroquinoline-6-carboxamide]	100 nM
CC(=O)N1c2ccc(C(N)=O)cc2[C@H](Nc2cccc(F)c2)[C@@H](C)[C@@H]1C1CC1 [Example 359, (2S,3R,4R)-1-acetyl-2-cyclopropyl-4-((3-fluorophenyl)amino)-3-methyl-1,2,3,4-tetrahydroquinoline-6-carboxamide]	100 nM
COc1cccc(N[C@H]2c3cc(C(N)=O)ccc3N(C(C)=O)[C@@H](C3CC3)[C@@H]2C)c1 [Example 360, (2S,3R,4R)-1-acetyl-2-cyclopropyl-4-((3-methoxyphenyl)amino)-3-methyl-1,2,3,4-tetrahydroquinoline-6-carboxamide]	100 nM
CC(=O)N1c2ccc(C(N)=O)cc2[C@H](Nc2ccc(C#N)cc2)[C@@H](C)[C@@H]1C1CC1 [Example 378, (2S,3R,4R)-1-acetyl-4-((4-cyanophenyl)amino)-2-cyclopropyl-3-methyl-1,2,3,4-tetrahydroquinoline-6-carboxamide]	100 nM
CC(=O)N1c2ccc(C(N)=O)cc2[C@H](Nc2ccc(Cl)cn2)[C@@H](C)[C@@H]1C1CC1 [Example 379, (2S,3R,4R)-1-acetyl-4-((5-chloropyridin-2-yl)amino)-2-cyclopropyl-3-methyl-1,2,3,4-tetrahydroquinoline-6-carboxamide]	100 nM
CC(=O)N1c2ccc(C(N)=O)cc2[C@H](Nc2nccc(N(C)C)n2)[C@@H](C)[C@@H]1C1CC1 [Example 387, (2S,3R,4R)-1-acetyl-2-cyclopropyl-4-((4-(dimethylamino)pyrimidin-2-yl)amino)-3-methyl-1,2,3,4-tetrahydroquinoline-6-carboxamide]	1000 to 100000 nM
COc1cc(C#N)ccc1N[C@H]1c2cc(C(N)=O)ccc2N(C(C)=O)[C@@H](C2CC2)[C@@H]1C [Example 390, (2S,3R,4R)-1-acetyl-4-((4-cyano-2-methoxyphenyl)amino)-2-cyclopropyl-3-methyl-1,2,3,4-tetrahydroquinoline-6-carboxamide]	100 nM
CC(=O)N1c2ccc(C(N)=O)cc2[C@H](Nc2cnc(C#N)c(Cl)c2)[C@@H](C)[C@@H]1C1CC1 [Example 391, (2S,3R,4R)-1-acetyl-4-((5-chloro-6-cyanopyridin-3-yl)amino)-2-cyclopropyl-3-methyl-1,2,3,4-tetrahydroquinoline-6-carboxamide]	1000 to 100000 nM
COc1ccc(N[C@H]2c3cc(C(N)=O)ccc3N(C(C)=O)[C@@H](C3CC3)[C@@H]2C)c(C#N)c1 [Example 392, (2S,3R,4R)-1-acetyl-4-((2-cyano-4-methoxyphenyl)amino)-2-cyclopropyl-3-methyl-1,2,3,4-tetrahydroquinoline-6-carboxamide]	100 nM
CC(=O)N1c2ccc(C(N)=O)cc2[C@H](Nc2ncccn2)[C@@H](C)[C@@H]1C1CC1 [Example 399, (2S,3R,4R)-1-acetyl-2-cyclopropyl-3-methyl-4-(pyrimidin-2-ylamino)-1,2,3,4-tetrahydroquinoline-6-carboxamide]	100 nM
CC(=O)N1c2ccc(C(N)=O)cc2[C@H](Nc2ccc(C#N)cn2)[C@@H](C)[C@@H]1C1CC1 [Example 400, (2S,3R,4R)-1-acetyl-4-((5-cyanopyridin-2-yl)amino)-2-cyclopropyl-3-methyl-1,2,3,4-tetrahydroquinoline-6-carboxamide]	100 nM
CC(=O)N1c2ccc(C(N)=O)cc2[C@H](Nc2ncc(Cl)cn2)[C@@H](C)[C@@H]1C1CC1 [Example 403, (2S,3R,4R)-1-acetyl-4-((5-chloropyrimidin-2-yl)amino)-2-cyclopropyl-3-methyl-1,2,3,4-tetrahydroquinoline-6-carboxamide]	100 nM
CCc1ccnc(N[C@H]2c3cc(C(N)=O)ccc3N(C(C)=O)[C@@H](C3CC3)[C@@H]2C)n1 [Example 407, (2S,3R,4R)-1-acetyl-2-cyclopropyl-4-((4-ethylpyrimidin-2-yl)amino)-3-methyl-1,2,3,4-tetrahydroquinoline-6-carboxamide]	100 nM
CC(=O)N1c2ccc(C(N)=O)cc2[C@H](Nc2nc(C)cc(C)n2)[C@@H](C)[C@@H]1C1CC1 [Example 408, (2S,3R,4R)-1-acetyl-2-cyclopropyl-4-((4,6-dimethylpyrimidin-2-yl)amino)-3-methyl-1,2,3,4-tetrahydroquinoline-6-carboxamide]	1000 to 100000 nM
CC(=O)N1c2ccc(C(N)=O)cc2[C@H](Nc2nccc(C(C)C)n2)[C@@H](C)[C@@H]1C1CC1 [Example 411, (2S,3R,4R)-1-acetyl-2-cyclopropyl-4-((4-isopropylpyrimidin-2-yl)amino)-3-methyl-1,2,3,4-tetrahydroquinoline-6-carboxamide]	100 nM
CC(=O)N1c2ccc(C(N)=O)cc2[C@H](Nc2nccc(C3=CCOCC3)n2)[C@@H](C)[C@@H]1C1CC1 [Example 413]	100 nM
CC(=O)N1c2ccc(C(N)=O)cc2[C@H](Nc2ncccc2C(N)=O)[C@@H](C)[C@@H]1C1CC1 [Example 418, (2S,3R,4R)-1-acetyl-4-((3-carbamoylpyridin-2-yl)amino)-2-cyclopropyl-3-methyl-1,2,3,4-tetrahydroquinoline-6-carboxamide]	100 nM
Cc1ccnc(N[C@H]2c3cc(C(N)=O)ccc3N(C(=O)C(C)C)[C@@H](C3CC3)[C@@H]2C)n1 [Example 422, (2S,3R,4R)-2-cyclopropyl-1-isobutyryl-3-methyl-4-((4-methylpyrimidin-2-yl)amino)-1,2,3,4-tetrahydroquinoline-6-carboxamide]	1000 to 100000 nM
CC(=O)N1c2ccc(C(=O)NCCO)cc2[C@H](Nc2ncc(F)c(C)n2)[C@@H](C)[C@@H]1C [Example 430, (2S,3R,4R)-1-acetyl-4-((5-fluoro-4-methylpyrimidin-2-yl)amino)-N-(2-hydroxyethyl)-2,3-dimethyl-1,2,3,4-tetrahydroquinoline-6-carboxamide]	100 nM
CC(=O)N1c2ccc(C(=O)NCCO)cc2[C@H](Nc2ccc(F)c(C)n2)[C@@H](C)[C@@H]1C [Example 433, (2S,3R,4R)-1-acetyl-4-((5-fluoro-6-methylpyridin-2-yl)amino)-N-(2-hydroxyethyl)-2,3-dimethyl-1,2,3,4-tetrahydroquinoline-6-carboxamide]	100 nM
